These results are taken from US20160374944A1, “COMPOSITIONS AND METHODS FOR TREATING AND PREVENTING CANCER BY TARGETING AND INHIBITING CANCER STEM CELLS” (priority 2011, published 2016).

For assay [1], the system named is Pancreatic CSCs. The assay can be described thus: cell viability, trypan blue, Vi-CELL analyzer. Format: cell-based, human. The method, then:
Pancreatic CSCs were treated with resveratrol (0-20 μM), curcumin (0-20 μM), honokiol (0-20 μM) and diallyl trisulphide (0-20 μM) for 3 days, and cell viability was measured by staining with trypan blue using Vi-CELL analyzer (Beckman Counter).
Pancreatic CSCs were treated with sulforaphane (0-20 μM), rottlerin (0-2 μM), EGCG (0-60 μM) and embelin (0-5 μM) for 3 days, and cell viability was measured by staining with trypan blue using Vi-CELL analyzer (Beckman Counter).
(§1) (A) Pancreatic CSCs were treated with SAHA (3 and 5 μM) and 5-Aza-dc (2 and 4 μM) and cell viability was measured at 48 h by staining with trypan blue using Vi-CELL analyzer (Beckman Counter). (B) Pancreatic CSCs were untreated (a) or treated with SAHA (b) or 5-Aza-dC (c) for 48 h, and apoptosis was measured by staining with annexin-PI using Accuri Flow Cytometer. (C) Caspase-3/7 activity was measured in pancreatic CSCs treated with SAHA (0.5 and 2 μM) or 5-Aza-dC (1 and 3 μM) for 25 h.
Pancreatic CSCs were treated with resveratrol (0-20 μM), curcumin (0-20 μM), honokiol (0-20 μM), and diallyl trisulphide (0-20 μM) for 3 days and cell viability was measured by staining with trypan blue using Vi-CELL analyzer. The results of those studies are illustrated in FIG. 27.
Pancreatic CSCs were treated with sulforaphane (0-20 μM), rottlerin (0-2 μM), EGCG (0-60 μM), and embelin (0-5 μM) for 3 days and cell viability was measured by staining with trypan blue using Vi-CELL analyzer. The results of those studies are illustrated in FIG. 28.
Pancreatic CSCs were treated with SAHA […] Vorinostat (3 and 5 μM) and 5-Aza-2′-deoxycytidine (5-Aza-dC, 2 and 4 μM) and cell viability was measured at 48 hours by staining with trypan blue using Vi-CELL analyzer. The results of those studies are illustrated in FIG. 31A.

For assay [2], the system named is Pancreatic CSCs. The assay can be described thus: apoptosis. The class given is cell-based, human. As to conditions: 48 h, annexin-PI, flow cytometer. The procedure:
(A and B) Induction of apoptosis and activation of caspase-3/-7. Pancreatic CSCs were treated with rottlerin (0-2 μM) for 48 h, and apoptosis and caspase-3/-7 activity were measured by […] and colorometric assay, respectively. […] (C) Pancreatic CSCs were treated with rottlerin (0-1 μM) for 48 h, and the expression of Bcl-2, XIAP and Survivin was measured by qRT-PCR and normalized to GAPDH.
as §1
(A) Regulation of caspase-3/7 activity by EGCG. CSCs were treated with EGCG (0-60 μM) for 24 h, and caspase-3/7 activity was measured as per manufacturer's instructions. […] (B) Regulation of apoptosis by EGCG. CSCs were treated with EGCG (0-60 μM) for 48 h, and apoptosis was measured by TUNEL assay. […] (C) Regulation of apoptosis-related proteins. Pancreatic CSCs were treated with EGCG (0-60 μM) for 36 h. Real time PCR (q-RT-PCR) was performed to examine the expression of Bcl-2, survivin, XIAP, and GAPDH.
FIG. 42A and FIG. 42B show graphs showing quercetin synergizes with EGCG to inhibit self-renewal capacity, invasion, migration, and TCF/LEF and Gli transcriptional activities in pancreatic CSCs. (A) Effects of EGCG and quercetin on spheroid and colony formation. Upper Panel, uercetin synergizes with EGCG to inhibit spheroid's cell viability. CSCs were seeded in suspension and treated with EGCG (0-60 μM) with or without quercetin (20 μM) for 7 days. At the end of incubation period, all the spheroids were collected and resuspended. Cell viability was measured by trypan blue assay. […] Lower panel, uercetin synergizes with EGCG to inhibit colony formation. Pancreatic CSCs were seeded in soft agar and treated with various doses of EGCG (0-60 μM) with or without quercetin (20 μM) and incubated at […] for 21 days. At the end of incubation period, colonies were counted. […] (B) Effects of EGCG and quercetin on invasion and migration. Upper panel, Matrigel invasion assay. CSCs were plated onto the Matrigel-coated membrane in the top chamber of the transwell and treated with EGCG (0-60 μM) with or without quercetin (20 μM) for 48 hrs. Cells invaded to the lower chambered were fixed with methanol, stained with crystal violet and counted. […] Lower panel, Transwell migration assay. Pancreatic CSCs were plated in the top chamber of the transwell and treated with EGCG (0-60 μM) with or without quercetin (20 μM) for 48 hrs. Cells migrated to the lower chambered were fixed with methanol, stained with crystal violet and counted. […] (C) Quercetin synergizes with EGCG to induce apoptosis. CSCs were seeded in suspension and treated with EGCG (0-60 μM) with or without quercetin (20 μM) for 7 days. At the end of incubation period, all the spheroids were collected. Apoptosis was measured by TUNEL assay. […] (D) Effects of EGCG and quercetin on TCF/LEF and Gli transcriptional activities. Pancreatic CSCs were transduced with either lentivirus encoding TCF/LEF responsive GFP and luciferase genes or Gli-responsive GFP and luciferase genes. Transduced CSCs were treated with EGCG (40 μM) with or without quercetin (20 μM) for 48 hrs and the luciferase activity was measured.
Pancreatic CSCs were (a) untreated, (b) treated with SAHA, or (c) treated with 5-Aza-dC for 48 hours and apoptosis was measured by staining with annexin-PI using Accuri Flow Cytometer. The results of those studies are illustrated in FIG. 31B.
(In flow cytometry, cells or beads pass a laser one at a time.)

The test system of assay [3] is Prostate CSCs. The assay can be described thus: cell viability by XTT assay. The class given is cell-based, human. Particulars: 3 days; PITC 0-20 μM, BSC 0-20 μM. The procedure: (§2) (A-B) Pancreatic CSCs were treated with BSC (0-20 μM) and honokiol (0-10 μM); (C-D) Prostate CSCs were treated with PITC (0-20 μM) and BSC (0-20 μM) for 3 days. Cell viability was measured by XTT assay.
In general terms: Formazan colour is commonly taken as a measure of viable cells.

The test system of assay [4] is Pancreatic CSCs. Description: cell viability by XTT assay. The class given is cell-based, human. Particulars: 3 days; BSC 0-20 μM, honokiol 0-10 μM. The method, then: as §2
The test system of a further assay is Breast CSCs. Description: cell viability by XTT assay. The class given is cell-based. Particulars: 3 days. The method, then:
Breast CSCs were seeded in 96-well plate and treated with sulforaphane, diallyl trisulphide, resveratrol and curcumin for 3 days. At the end of incubation period, CSCs were harvested and cell viability was measured by XTT assay.
Breast CSCs were seeded in 96-well plate and treated with rottlerin, EGCG, embelin, and honokiol for 3 days. At the end of incubation period, breast CSCs were harvested and cell viability was measured by XTT assay.
(A-D) Breast CSCs were treated with PITC (0-20 μM), BSC, (0-20 μM), sulforaphane (0-20 μM) and honokiol (0-10 μM) for 3 days, and cell viability was measured by XTT assay.
Breast CSCs were treated with rottlerin (0-1 μM) for 3 days, and cell viability was measured by XTT assay.
Breast CSCs were seeded in 96-well plate and treated with sulforaphane, diallyl trisulphide, resveratrol, and curcumin for 3 days and cell viability was measured by XTT assay. The results of those studies are illustrated in FIG. 29.
Breast CSCs were seeded in 96-well plate and treated with Rottlerin, EGCG, embelin, and honokiol for 3 days and cell viability was measured by XTT assay. The results of those studies are illustrated in FIG. 30.

A further assay concerns pancreatic cancer. Particulars: background statement; cited from earlier work.
The test system of assay [5] is Prostate CSCs. The assay can be described thus: cell viability, trypan blue, Vi-CELL analyzer. Format: cell-based, human. Particulars: 3 days. The method, then:
Prostate CSCs were treated with resveratrol (0-20 μM), curcumin (0-20 μM), honokiol (0-20 μM) and diallyl trisulphide (0-10 μM) for 3 days, and cell viability was measured by staining with trypan blue using Vi-CELL analyzer (Beckman Counter).
Prostate CSCs were treated with sulforaphane (0-20 μM), rottlerin (0-5 μM), EGCG (0-40 μM) and embelin (0-1 μM) for 3 days, and cell viability was measured by staining with trypan blue using Vi-CELL analyzer (Beckman Counter).
Prostate CSCs were treated with resveratrol (0-20 μM), curcumin (0-20 μM), honokiol (0-20 μM), and diallyl trisulphide (0-10 μM) for 3 days and cell viability was measured by staining with trypan blue using Vi-CELL analyzer. The results of those studies are illustrated in FIG. 25.
Prostate CSCs were treated with sulforaphane (0-20 μM), rottlerin (0-5 μM), EGCG (0-40 μM), and embelin (0-1 μM) for 3 days and cell viability was measured by staining with trypan blue using Vi-CELL analyzer. The results of those studies are illustrated in FIG. 26.

Assay [6] deals with Brain CSCs. The assay can be described thus: cell viability, trypan blue, Vi-CELL analyzer. The class given is cell-based. Particulars: 3 days. The procedure: Brain CSCs were treated with resveratrol (0-20 μM), curcumin (0-20 μM), honokiol (0-20 μM) and diallyl trisulphide (0-10 μM) for 3 days, and cell viability was measured by staining with trypan blue using Vi-CELL analyzer (Beckman Counter).
Brain CSCs were treated with sulforaphane (0-20 μM), rottlerin (0-1 μM), EGCG (0-40 μM) and embelin (0-5 μM) for 48 h, and cell viability was measured by staining with trypan blue using Vi-CELL analyzer (Beckman Counter).
Brain CSCs were treated with resveratrol (0-20 μM), curcumin (0-20 μM) honokiol (0-20 μM), and diallyl trisulphide (0-10 μM) for 3 days and cell viability was measured by staining with trypan blue using Vi-CELL analyzer. The results of those studies are illustrated in FIG. 23.
Brain CSCs were treated with sulforaphane (0-20 μM), rottlerin (0-1 μM), EGCG (0-40 μM), and embelin (0-5 μM) for 48 hours and cell viability was measured by staining with trypan blue using Vi-CELL analyzer. The results of those studies are illustrated in FIG. 24.

Assay [7] relates to Brain CSCs. The assay can be described thus: cell viability by XTT assay. Format: cell-based. Particulars: 3 days; 0-20 μM. The method, then: (A-B) Brain CSCs were treated with sulforaphane (0-20 μM), and honokiol (0-20 μM) for 3 days, and cell viability was measured by XTT assay.
[8] abbreviates: 48 h, SAHA 3 and 5 μM, 5-Aza-dc 2 and 4 μM.

Take `Nc1ncn([C@H]2C[C@H](O)[C@@H](CO)O2)c(=O)n1` [5-Aza-dC, 5-Aza-2′-deoxycytidine, reference compound]: in the assay on Pancreatic CSCs [1] (setting [8]), the cell viability result is recorded as “inhibit cell viability”. Also, the apoptosis entry in the assay with Pancreatic CSCs [2] is recorded as “promote apoptosis”.

Turning to `N#C[Se]Cc1ccccc1` [BSC, benzyl selenocyanate], the cell viability result in the assay on Prostate CSCs [3], in the assay with Pancreatic CSCs [4] and in the assay on Breast CSCs was “inhibit cell viability” throughout.

Regarding `Nc1ccn([C@@H]2O[C@H](CO)[C@@H](O)C2(F)F)c(=O)n1` [Gemcitabine], in the assay with pancreatic cancer, the “pancreatic cancer patients in whom the drug is effective” value is listed as 30% and the “survival of pancreatic cancer patients” value is “less than 5 years”.

On to `S=C=Nc1ccccc1` [PITC, phenyl isothiocyanate], for which the cell viability entry in the assay with Prostate CSCs [3] and with Breast CSCs was “inhibit cell viability” in each case.

`O=C(CCCCCCC(=O)Nc1ccccc1)NO` [SAHA, reference compound]: in the assay on Pancreatic CSCs [1] (setting [8]), the cell viability result is recorded as “inhibit cell viability”. The apoptosis result with Pancreatic CSCs [2] was “promote apoptosis”.

As for `COc1cc(/C=C/C(=O)CC(=O)/C=C/c2ccc(O)c(OC)c2)ccc1O` [curcumin], the cell viability entry in the assay with Prostate CSCs [5], with Brain CSCs [6], in the assay on Pancreatic CSCs [1] (3 days) and with Breast CSCs was “inhibit cell viability” in each case.

For `C=CCSSSCC=C` [diallyl trisulphide], the cell viability entry in the assay with Prostate CSCs [5], in the assay on Brain CSCs [6], in the assay with Pancreatic CSCs [1] (3 days) and in the assay with Breast CSCs was “inhibit cell viability” each time.

Consider `C=CCc1ccc(O)c(-c2ccc(O)c(CC=C)c2)c1` [honokiol], for which the cell viability entry with Pancreatic CSCs [4], in the assay on Brain CSCs [7], in the assay on Prostate CSCs [5], with Brain CSCs [6], with Pancreatic CSCs [1] (3 days) and in the assay with Breast CSCs was “inhibit cell viability” throughout.

In the case of `Oc1ccc(C=Cc2cc(O)cc(O)c2)cc1` [resveratrol], the cell viability result with Prostate CSCs [5], with Brain CSCs [6], in the assay on Pancreatic CSCs [1] (3 days) and in the assay on Breast CSCs was “inhibit cell viability” throughout.
